pIC50: −log10 of the molar value. “And” between values parts separate entries of the source, which are not always exact repeats. Equal entries are not always repeated.
Test system: 885724-159-R-J1-PDC complex spheroid viability
Test: Anticancer human tumor 885724-159-R-J1-PDC patient-derived pancreatic adenocarcinoma cell line growth inhibition [GQUAD]
Details: for viability, T/C: stronger effect = lower value
From the text: DNA G-quadruplex Stabilizer Agents in Combinations in Complex Spheroids
A high-throughput screen of multi-cell type tumor spheroids was designed to identify active combinations of DNA G-quadruplex stabilizer agents and targeted small molecules. Complex spheroids include a stromal component modeled by human endothelial cells (HUVEC) and fibroblasts modeled by human mesenchymal stem cells (MSCs). The concentration ranges selected for each drug and investigational agent were based upon clinically achievable concentrations if the clinical Cmax of the agent was known.
Compounds. The drugs and investigational agents: pidnarulex (CX-5461; NSC782164), APTO-253 (NSC789042), BRACO-19 (NSC847499), peposertib (NSC802822), ceralasertib (NSC780249), elimusertib (NSC800525), camonsertib (NSC841442), AZD-1390 (NSC803789), olaparib (NSC753686), talazoparib (NSC767125), ART-558 (NSC835418), sotorasib (NSC818433), MRTX-1133 (NSC836407), SN-38 (NSC673596), topotecan (NSC609699), etoposide (NSC141540), doxorubicin (NSC123127), gemcitabine (NSC613327), 5-fluorouracil (NSC19893), paclitaxel (NSC125973), vemurafenib (NSC761431), panobinostat (NSC761190), R-306465 (JNJ-16241199; NSC773264), adavosertib (NSC754352), TP-3654 (NSC805149), carboplatin (NSC241240), KSQ-4279 (NSC840948), and staurosporine (NSC755774) were obtained from the National Cancer Institute (NCI) Developmental Therapeutics Program Chemical Repository (34). The FDA-approved anticancer drug set is available from the NCI Developmental Therapeutics Program. […] The stock solutions were prepared in dimethyl sulfoxide (DMSO, Sigma-Aldrich, St. Louis, MO, cat. D2650) at 800-fold the tested concentration and stored at -70 degrees C prior to their use. All drugs and investigational agents were tested over a range starting from a high concentration at or near the clinical Cmax and decreasing in half-log increments. If the clinical Cmax for an agent had not been determined, the highest concentration tested was 10 microM.
2.3 Cell Culture. All cells were maintained in an incubator at 37 degrees C and 5% CO2 with 95% humidity. The PDC lines were cultured according to standard operating procedures established by the NCI PDMR. All PDCs were thawed and cultured in Matrigel-coated flasks prepared with a working solution of 1X Ham's F-12 nutrient mix, without supplementation (Invitrogen, cat. 11765054), 100 U/mL penicillin-streptomycin (Invitrogen, cat. 15140122), and 2.5% Matrigel (Corning Inc., cat. 354248) for the first three passages. The 857933-349-R-J2-PDC line was cultured in 6C/Colon 1B media, which includes advanced DMEM/F-12 (Thermo Fisher Scientific, cat. 12634028), 10 mM HEPES (Thermo Fisher Scientific, cat. 15630080), 1X GlutaMAX supplement (Thermo Fisher Scientific, cat. 35050061), 0.1 mg/mL primocin (InvivoGen, cat. ant-pm-2), 10% defined fetal bovine serum, heat inactivated (HyClone Laboratories Inc., cat. SH30070.03HI), 50% L-WRN conditioned media (ATCC, cat. CRL-3276), 1.25 mM N-Acetyl-L-cysteine (Sigma-Aldrich, cat. A9165), 10 mM nicotinamide (Sigma-Aldrich, cat. N0636), 1X B-27 supplement (Thermo Fisher Scientific, cat. 17504044), 1X N-2 supplement (Thermo Fisher Scientific, cat. 17502048), 10 microM Y-27632 dihydrochloride (Tocris Bioscience, cat. 1254), and 50 ng/mL human EGF recombinant protein (Thermo Fisher Scientific, cat. PHG0311). The 485176-168-R4-J1-PDC line was cultured in Panc media, which includes all 6C/Colon 1B media components plus 100 ng/mL human FGF-10 (Thermo Fisher Scientific, cat. 100-26), 500 nM SB-431542 (Selleckchem, cat. S1067), and gastrin (Tocris, cat. 3006).
[…]

[1] = compound alone, run of 02/26/2024
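Also: spheroids exposed to agents for seven days before readout.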
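For viability, T/C in this document: percent of vehicle control viability where 100% = DMSO wells.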

Structure (SMILES) | pIC50 (curve of compound) | pIC50 [1] | pIC50 (compound alone, run of 02/20/2024) | viability, T/C (compound 0.0316 µM) | viability, T/C (compound 0.1 µM) | viability, T/C (compound 0.316 µM) | viability, T/C (compound 1 µM) | viability, T/C (compound 3.16 µM) | viability, T/C (compound 10 µM) | viability, T/C (compound 0.000999 µM) | viability, T/C (compound 0.00316 µM) | viability, T/C (compound 0.00999 µM) | viability, T/C (compound 0.0999 µM)
CC(C)n1c(=O)n(C)c2cnc3cc(F)c(-c4ccc(OCCCN5CCCCC5)nc4)cc3c21 | < 5.00 |  |  | 102% (2×) and 106% | 100% and 103% and 96.6% | 83.3% and 94.1% and 102% | 107% and 108% and 86.7% | 95.5% and 86.1% and 102% | 87.7% and 68.2% and 77.4% |  |  |  | 
CC1COCCN1c1cc(C2(O)CC3CCC(C2)O3)c2cnn(-c3ccn[nH]3)c2n1 (stereo not drawn) | 6.00 and 5.66 and 5.70 |  |  | 86.4% and 103% and 91.5% | 85.4% and 80.9% and 79.5% | 74.2% and 74.5% and 71.8% | 48.6% and 56% and 53.5% | 37.3% and 46.2% and 47.5% | 28.3% and 38.1% and 36.4% |  |  |  | 
CC1COCCN1c1cc(C2(S(C)(=N)=O)CC2)nc(-c2ccnc3[nH]ccc23)n1 (stereo not drawn) | < 5.00 |  |  | 105% (2×) and 97.6% | 105% and 96.7% and 98.2% | 105% and 94.7% and 99.6% | 97.2% and 88.8% and 98.5% | 84.7% and 82.4% and 109% | 65.2% and 74.3% and 86.2% |  |  |  | 
CC[C@@]1(O)C(=O)OCc2c1cc1n(c2=O)Cc2cc3c(CN(C)C)c(O)ccc3nc2-1 | < 6.50 |  |  | 80.8% and 92.5% and 101% |  | 74.5% and 64.7% and 71.3% |  |  |  | 86.3% and 93.6% and 89.6% | 104% and 87.4% and 88.3% | 99.2% and 92.9% and 93% | 85.6% and 74.7% and 90.8%
CCc1c2c(nc3ccc(O)cc13)-c1cc3c(c(=O)n1C2)COC(=O)[C@]3(O)CC | 6.96 and 7.19 and 7.00 |  |  | 66.7% and 67.3% and 62.1% |  | 17.2% and 8.7% and 16.4% |  |  |  | 85.3% and 91.4% and 93.3% | 87.5% and 81.8% and 85.2% | 63.2% and 62.8% and 77.4% | 60.3% and 45.8% and 59%
CN(C)c1ccc(Nc2c3ccc(NC(=O)CCN4CCCC4)cc3nc3cc(NC(=O)CCN4CCCC4)ccc23)cc1 |  | < 5.00 |  | 96.8% [middle of 12 runs] | 97.9% [middle of 12 runs] | 92.3% [middle of 12 runs] | 79.7% [middle of 12 runs] | 78.5% [middle of 12 runs] | 84.1% [middle of 12 runs] |  |  |  | 
COc1cc(C2c3cc4c(cc3C(OC3OC5COC(C)OC5C(O)C3O)C3COC(=O)C23)OCO4)cc(OC)c1O (stereo not drawn) | < 5.00 |  |  | 91.7% and 104% and 96.9% | 109% and 103% and 96.3% | 97.6% and 98.6% and 86.9% | 88.8% and 96.8% and 89% | 88.5% and 77.7% and 77.3% | 85.7% and 76.8% and 76.7% |  |  |  | 
COc1cccc2c1C(=O)c1c(O)c3c(c(O)c1C2=O)CC(O)(C(=O)CO)CC3OC1CC(N)C(O)C(C)O1 (stereo not drawn) | 5.63 and 5.62 and 5.67 |  |  | 92.3% and 103% and 104% | 92.3% and 81.3% and 102% | 80.3% and 79.5% and 78.9% | 84.3% and 81.4% and 81.6% | 38.4% and 40.1% and 34.5% | 4.02% and 1.94% and 3.83% |  |  |  | 
Cc1cccc(N(C)C(=O)C2C(O)CCN2c2nc(C)cc(C(F)(F)F)c2C#N)c1 (stereo not drawn) | < 5.00 |  |  | 98.5% and 93% and 97.9% | 93.8% and 90.7% and 89.8% | 90.9% and 103% and 97% | 92.1% and 105% and 93.5% | 97.1% and 97.4% and 96.8% | 95.8% and 104% and 89.9% |  |  |  | 
Nc1ccn(C2OC(CO)C(O)C2(F)F)c(=O)n1 (stereo not drawn) | < 5.00 |  |  | 94.4% and 88% and 85.7% | 93.7% and 90.3% and 81.5% | 74.7% and 78.5% and 86.1% | 73.9% and 75.2% and 79.9% | 80.9% and 58.4% and 67% | 69% and 61% and 68.9% |  |  |  | 

More lines, main results first:

pIC50 (curve of compound) | pIC50 [1] | pIC50 (compound alone, run of 02/20/2024) | Structure (SMILES) | viability, T/C (compound 0.0316 µM) | viability, T/C (compound 0.1 µM) | viability, T/C (compound 0.316 µM) | viability, T/C (compound 1 µM) | viability, T/C (compound 3.16 µM) | viability, T/C (compound 10 µM) | viability, T/C (compound 0.000999 µM) | viability, T/C (compound 0.00316 µM) | viability, T/C (compound 0.00999 µM) | viability, T/C (compound 0.0999 µM)
< 5.00 |  |  | C=CC(=O)N1CCN(c2nc(=O)n(-c3c(C)ccnc3C(C)C)c3nc(-c4c(O)cccc4F)c(F)cc23)C(C)C1 (stereo not drawn) | 96.5% and 93.7% and 94.2% | 88.8% and 90% and 101% | 98.2% and 110% (2×) | 117% and 108% and 105% | 95.2% and 106% and 104% | 87% and 89.9% and 96.3% |  |  |  | 
5.17 and < 5.00 and 5.58 |  |  | CC1COCCN1c1cc(-c2ccnn2C)c2ccnc(-c3ccn[nH]3)c2n1 (stereo not drawn) | 104% and 98% and 79.1% | 93% and 80.3% and 83.4% | 83.2% and 68.7% and 75% | 69.1% and 67.7% and 69.3% | 58.6% and 51.1% and 45.9% | 45.6% and 52.2% and 42.1% |  |  |  | 
5.19 and 5.25 and 5.24 |  |  | COc1ccc([C@@H](O)c2cc(-c3ncnc4cc(N5CCOCC5)ccc34)c(F)cc2Cl)nn1 | 97.9% and 93.6% and 102% | 99.9% and 83.8% and 90.8% | 85.5% and 98.2% and 81.1% | 87.8% and 74.6% and 83.2% | 64.8% and 59.1% and 64.2% | 39.9% and 41.8% and 37.1% |  |  |  | 
 | < 5.00 | < 5.00 | Cc1[nH]c2ccc(F)cc2c1-c1nc2c3cccnc3c3ncccc3c2[nH]1 | 100% [middle of 12 runs] |  | 92.7% [middle of 12 runs] | 76.8% [middle of 12 runs] |  | 77.7% [middle of 12 runs] |  |  |  | 
6.53 and < 6.50 and 6.62 |  |  | Cc1[nH]c2ccccc2c1CCNCc1ccc(/C=C/C(=O)NO)cc1 | 108% and 83.9% and 98.7% |  | 47.5% and 47.9% and 42.7% |  |  |  | 92.3% and 106% and 93.5% | 91.4% and 98.9% and 103% | 95.6% and 86.5% and 91.7% | 95.6% and 86.5% and 74.5%
< 6.50 |  |  | Cn1ncnc1[C@H]1c2n[nH]c(=O)c3cc(F)cc(c23)N[C@@H]1c1ccc(F)cc1 | 92.5% and 97.9% and 93.9% |  | 89.2% and 88% and 94.4% |  |  |  | 93.4% and 97.4% and 94.5% | 108% and 94.8% and 82.2% | 87.3% and 97.6% and 97.2% | 88.5% and 97.7% and 103%
< 5.00 |  |  | O=C(c1cc(Cc2n[nH]c(=O)c3ccccc23)ccc1F)N1CCN(C(=O)C2CC2)CC1 | 99.2% and 89.1% and 108% | 101% and 98.7% and 92.9% | 95.6% and 92.5% and 106% | 87% and 108% and 83.3% | 90.5% and 89.9% and 99.1% | 97.6% and 90.9% and 82.7% |  |  |  | 

Reference: PubChem BioAssay AID2060502 (Molecular Pharmacology Branch, DTP, NCI, 2025)
